Key:
[1] = target: human PHD2181-417 (Homo sapiens (Human), UniProt Q9GZT9); test: PHD2 enzyme activity assay ([14C]-succinic acid production); type: biochemical; conditions: PHD2181-417 polypeptide, HIF-1α peptide 10 μM, [5-14C]-2-oxoglutaric acid, 30 min pre-incubation, tested 10 μM to 3 nM; for IC50: read-out: Enzyme pIC50 (converted);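 for all read-outs here: reaction ran 10 min with compound in Tris pH 7.5 buffer with catalase, DTT and ascorbate, labelled succinate freed of leftover 2-oxoglutarate by DNP precipitation, then beta counted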
Sequence of human PHD2181-417 (Q9GZT9 181-417): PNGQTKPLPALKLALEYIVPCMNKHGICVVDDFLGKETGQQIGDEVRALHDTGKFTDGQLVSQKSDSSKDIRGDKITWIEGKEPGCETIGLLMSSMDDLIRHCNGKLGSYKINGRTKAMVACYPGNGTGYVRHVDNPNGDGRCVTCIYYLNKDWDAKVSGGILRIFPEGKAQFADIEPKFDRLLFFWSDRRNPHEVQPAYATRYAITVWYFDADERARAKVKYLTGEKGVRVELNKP

[2] = system: Hep-3B cells; test: Cellular assay: EPO secretion in Hep-3B cells; type: cell-based, human; design: EPO secretion, % of control compound: dose or concentration left out as unconfirmed; conditions: 24 h, EPO secretion as percentage of control compound 7-[(4-Chloro-phenyl)-(5-methyl-isoxazol-3-ylamino)-methyl]-quinolin-8-ol; for EPO secretion, % of control compound: Homo sapiens, Hep3B, read-out: Cellular % EPO Stimulation; for Cellular % EPO Stimulation: compound at 100 μM (10 μM or 100 μM)

| Enzyme pIC50 [1] | IC50 [1] [µM] | SMILES | EPO secretion, % of control compound [2] [%] | Cellular % EPO Stimulation [2] [%] |
| --- | --- | --- | --- | --- |
| 7.6 |  | CCS(=O)(=O)c1cc2nc(-n3cc(C(=O)O)cn3)[nH]c2cc1OC(F)(F)F [Example 155, 1-(5-Ethylsulfonyl-6-trifluoromethoxy-1H-benzoimidazol-2-yl)-1H-pyrazole-4-carboxylic Acid] | 47.2 |  |
| 7.8 |  | O=C(O)c1cnn(-c2nc3cc(S(=O)(=O)Cc4ccc(Cl)cc4)c(Cl)cc3[nH]2)c1 [Example 173, 1-[6-Chloro-5-(4-chloro-phenylmethanesulfonyl)-1H-benzoimidazol-2-yl]-1H-pyrazole-4-carboxylic Acid] | 60.4 |  |
| 6.6 |  | CCS(=O)(=O)Nc1cc2nc(-n3cc(C(=O)O)cn3)[nH]c2cc1Cl [Example 137, 1-(6-Chloro-5-ethanesulfonylamino-1H-benzoimidazol-2-yl)-1H-pyrazole-4-carboxylic Acid] | 11 |  |
| 6.3 |  | O=C(O)c1cnn(-c2nc3cc(COCc4ccccc4)ccc3[nH]2)c1 [Example 123, 1-(5-Benzyloxymethyl-1H-benzoimidazol-2-yl)-1H-pyrazole-4-carboxylic Acid] | 61.1 |  |
| 5.9 |  | O=C(O)c1cnn(-c2nc3nccnc3[nH]2)c1 [Example 184, 1-(1H-Imidazo[4,5-b]pyrazin-2-yl)-1H-pyrazole-4-carboxylic Acid] | 8.3 |  |
| 6.9 |  | O=C(O)c1cnn(-c2nc3cc(C(=O)Nc4ccccc4)ccc3[nH]2)c1 [Example 120, 1-(5-Phenylcarbamoyl-1H-benzoimidazol-2-yl)-1H-pyrazole-4-carboxylic Acid] | 21.1 |  |
| 7.3 |  | C[S+]([O-])c1cc2[nH]c(-n3cc(C(=O)O)cn3)nc2cc1C(F)(F)F (centres unmarked) [Example 108, 1-(6-Methanesulfinyl-5-trifluoromethyl-1H-benzoimidazol-2-yl)-1H-pyrazole-4-carboxylic Acid] | 20.4 |  |
| 6.3 |  | O=C(O)c1cnn(-c2nc3cc(NCCN4CCOCC4)c(Cl)cc3[nH]2)c1 [Example 134, 1-[6-Chloro-5-(2-morpholin-4-yl-ethylamino)-1H-benzoimidazol-2-yl]-1H-pyrazole-4-carboxylic Acid] | 56.5 |  |
| 7.3 |  | O=C(O)c1cnn(-c2nc3cc(Oc4ccc(F)cc4)c(C(F)(F)F)cc3[nH]2)c1 [Example 54, 1-[5-(4-Fluoro-phenoxy)-6-trifluoromethyl-1H-benzoimidazol-2-yl]-1H-pyrazole-4-carboxylic Acid] | 75.5 |  |
| 6.4 |  | Nc1cc2nc(-n3cc(C(=O)O)cn3)[nH]c2cc1Cl [Example 41, 1-(5-Amino-6-chloro-1H-benzoimidazol-2-yl)-1H-pyrazole-4-carboxylic Acid] | 30 |  |
| 7.2 |  | Cc1ccc2c(n1)c(Br)cc1nc(-n3cc(C(=O)O)cn3)[nH]c12 [Example 58, 1-(5-Bromo-7-methyl-1H-imidazo[4,5-f]quinolin-2-yl)-1H-pyrazole-4-carboxylic Acid] | 50 |  |
| 6.75 |  | O=C(O)c1cnn(-c2nc3cc(Sc4ccccc4)c(Cl)cc3[nH]2)c1 [Example 62, 1-(6-Chloro-5-phenylsulfanyl-1H-benzoimidazol-2-yl)-1H-pyrazole-4-carboxylic Acid] | 45.8 |  |
| 6.5 |  | O=C(O)c1cnn(-c2nc3c(Cl)cc(Cl)cc3[nH]2)c1 [Example 34, 1-(4,6-Dichloro-1H-benzoimidazol-2-yl)-1H-pyrazole-4-carboxylic Acid] | 56.3 |  |
| 7.2 |  | O=C(O)c1cnn(-c2nc3cc(Oc4ccccc4)c(OC(F)(F)F)cc3[nH]2)c1 [Example 53, 1-(5-Phenoxy-6-trifluoromethoxy-1H-benzoimidazol-2-yl)-1H-pyrazole-4-carboxylic Acid] | 138 |  |
| 7.1 |  | O=C(O)c1cnn(-c2nc3cc(Oc4ccc(F)c(Cl)c4)c(Cl)cc3[nH]2)c1 [Example 148, 1-[6-Chloro-5-(3-chloro-4-fluoro-phenoxy)-1H-benzoimidazol-2-yl]-1H-pyrazole-4-carboxylic Acid] | 38.1 |  |
| 6.8 |  | O=C(O)c1cnn(-c2nc3cc(NS(=O)(=O)c4ccccc4)c(Cl)cc3[nH]2)c1 [Example 138, 1-(5-Benzenesulfonylamino-6-chloro-1H-benzoimidazol-2-yl)-1H-pyrazole-4-carboxylic Acid] | 19 |  |
| 6.9 |  | O=C(O)c1cnn(-c2nc3cc(SCC4CCCCC4)c(Cl)cc3[nH]2)c1 [Example 165, 1-(6-Chloro-5-cyclohexylmethylsulfanyl-1H-benzoimidazol-2-yl)-1H-pyrazole-4-carboxylic Acid] | 27.3 |  |
| 7.4 |  | CCS(=O)(=O)c1cc2nc(-n3cc(C(=O)O)cn3)[nH]c2cc1F [Example 156, 1-(5-Ethylsulfonyl-6-fluoro-1H-benzoimidazol-2-yl)-1H-pyrazole-4-carboxylic Acid] | 51.9 |  |
| 7.5 |  | O=C(O)c1cnn(-c2nc3cc(S(=O)(=O)Cc4c(Cl)cccc4Cl)c(Cl)cc3[nH]2)c1 [Example 177, 1-[6-Chloro-5-(2,6-dichloro-phenylmethanesulfonyl)-1H-benzoimidazol-2-yl]-1H-pyrazole-4-carboxylic Acid] | 66.6 |  |
|  | > 100 | O=C(O)c1cn(-c2nc3cc(Cl)c(Cl)cc3[nH]2)nc1C(F)(F)F [Example 20, 1-(5,6-dichloro-1H-benzoimidazol-2-yl)-3-trifluoromethyl-1H-pyrazole-4-carboxylic Acid] |  | 18.81 |
| 7.1 |  | COc1ccc(Oc2cc3nc(-n4cc(C(=O)O)cn4)[nH]c3cc2Cl)cc1 [Example 145, 1-[6-Chloro-5-(4-methoxy-phenoxy)-1H-benzoimidazol-2-yl]-1H-pyrazole-4-carboxylic Acid] | 13.9 |  |
| 6.3 |  | O=C(O)c1cnn(-c2nc3c(Br)cc(F)cc3[nH]2)c1 [Example 124, 1-(4-Bromo-6-fluoro-1H-benzoimidazol-2-yl)-1H-pyrazole-4-carboxylic Acid] | 2.4 |  |
|  | > 100 | Cc1nn(-c2nc3cc(Cl)c(Cl)cc3[nH]2)c(C)c1C(=O)O [Example 22, 1-(5,6-Dichloro-1H-benzoimidazol-2-yl)-3,5-dimethyl-1H-pyrazole-4-carboxylic Acid] |  | 0.47 |
| 7.1 |  | CSc1cc2[nH]c(-n3cc(C(=O)O)cn3)nc2cc1C(F)(F)F [Example 71, 1-(6-Methylsulfanyl-5-trifluoromethyl-1H-benzoimidazol-2-yl)-1H-pyrazole-4-carboxylic Acid] | 114 |  |
| 6.6 |  | O=C(O)c1cnn(-c2nc3c(Br)cc(Cl)cc3[nH]2)c1 [Example 37, 1-(4-Bromo-6-chloro-1H-benzoimidazol-2-yl)-1H-pyrazole-4-carboxylic Acid] | 34 |  |
